Data: PubChem BioAssay AID330 (DTP/NCI, 2004)
“And” between values parts separate entries of the source, which are not always exact repeats. Equal entries are not always repeated. Inconclusive results and toxic doses are left out.

Test system: P388 leukemia ip, CD2F1 mice, survival T/C
Test: NCI In Vivo Anticancer Drug Screen. Data for tumor model P388 Leukemia (intraperitoneal) in CD2F1 (CDF1) mice
Conditions: endpoint: median survival time, higher = longer survival
Method in brief: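 Mice carrying the transplanted tumor received test compound or vehicle. Survival was recorded in each group, and the value is the treated-group measurement divided by that of the vehicle-treated control group.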

[1] = dose: 60.0 mg/kg/injection, schedule: Q01DX005 (ip), vehicle: Klucel (hydroxypropylcellulose) (HPC)
[2] = dose: 120.0 mg/kg/injection, schedule: Q01DX005 (ip), vehicle: Klucel (hydroxypropylcellulose) (HPC)
[3] = dose: 240.0 mg/kg/injection, schedule: Q01DX005 (ip), vehicle: Klucel (hydroxypropylcellulose) (HPC)
[4] = dose: 50.0 mg/kg/injection, schedule: Q01DX009 (ip), vehicle: saline
[5] = dose: 100.0 mg/kg/injection, schedule: Q01DX009 (ip), vehicle: saline
[6] = dose: 100.0 mg/kg/injection, schedule: Q01DX001 (ip), vehicle: Klucel (hydroxypropylcellulose) (HPC)
[7] = dose: 200.0 mg/kg/injection, schedule: Q01DX001 (ip), vehicle: Klucel (hydroxypropylcellulose) (HPC)
[8] = dose: 400.0 mg/kg/injection, schedule: Q01DX001 (ip), vehicle: Klucel (hydroxypropylcellulose) (HPC)
[9] = dose: 60.0 mg/kg/injection, schedule: Q01DX005 (ip), vehicle: saline with Tween-80
[10] = dose: 120.0 mg/kg/injection, schedule: Q01DX005 (ip), vehicle: saline with Tween-80
[11] = dose: 50.0 mg/kg/injection, schedule: Q01DX009 (ip), vehicle: saline with Tween-80
[12] = dose: 100.0 mg/kg/injection, schedule: Q01DX009 (ip), vehicle: saline with Tween-80

For `C1=C[N-]c2c3c(ccc2=C1)=CC=C[N-]3.C1=C[N-]c2c3c(ccc2=C1)=CC=C[N-]3.[Cl][Ru][Cl]`, the T/C (dose: 1.56 mg/kg/injection, schedule: Q01DX005 (ip), vehicle: saline with Tween-80) was 88 % of control, the T/C (dose: 3.13 mg/kg/injection, schedule: Q01DX005 (ip), vehicle: saline with Tween-80) was 111 % of control and the T/C (dose: 6.25 mg/kg/injection, schedule: Q01DX005 (ip), vehicle: saline with Tween-80) was 104 % of control.
With `CCOC(=O)c1cnc2cc3c(cc2c1Nc1cccc(C)c1C)OCO3` the T/C [1] was 101 % of control, the T/C [2] was 101 % of control and the T/C [3] was 95 % of control.
`O=C(SCCO)SCCO` was tested, and the T/C [4] was 86 % of control, the T/C [5] was 89 % of control and the T/C (dose: 200.0 mg/kg/injection, schedule: Q01DX009 (ip), vehicle: saline) was 88 % of control.
For `CCN(CC)CCOc1ccc(C=Nc2ccc3c4ccccc4n(CC)c3c2)cc1`, the T/C [6] was 100 % of control, the T/C [7] was 100 % of control and the T/C [8] was 99 % of control.
In the case of `CN1CCN=C1c1ccc(NC(=O)c2ccc(C(=O)Nc3ccc(C4=NCCN4C)cc3)c(N)c2)cc1`, the T/C (dose: 1.32 mg/kg/injection, schedule: Q01DX009 (ip), vehicle: saline) is reported as 120 % of control, the T/C (dose: 3.0 mg/kg/injection, schedule: Q01DX009 (ip), vehicle: saline) is reported as 150 % of control and the T/C (dose: 5.0 mg/kg/injection, schedule: Q04DX003 (ip), vehicle: saline with Tween-80) is reported as 95 % of control. The T/C (dose: 10.0 mg/kg/injection, schedule: Q04DX003 (ip), vehicle: saline with Tween-80) was 95 % of control and the T/C (dose: 20.0 mg/kg/injection, schedule: Q04DX003 (ip), vehicle: saline with Tween-80) was 90 % of control.
With `C/C=C(\C)C(=O)OC1CCC2(C)C3CCC4C5(O)CC(O)C6(O)C(CN7CC(C)CCC7C6(C)O)C5(O)CC42OC13O` (centres undefined) the T/C (dose: 1.56 mg/kg/injection, schedule: Q01DX005 (ip), vehicle: Klucel (hydroxypropylcellulose) (HPC)) was 98 % of control, the T/C (dose: 1.56 mg/kg/injection, schedule: Q01DX005 (ip), vehicle: saline) was 96 % of control and the T/C (dose: 3.12 mg/kg/injection, schedule: Q01DX005 (ip), vehicle: Klucel (hydroxypropylcellulose) (HPC)) was 106 % of control. The T/C (dose: 3.12 mg/kg/injection, schedule: Q01DX005 (ip), vehicle: saline) was 96 % of control, the T/C (dose: 6.25 mg/kg/injection, schedule: Q01DX005 (ip), vehicle: Klucel (hydroxypropylcellulose) (HPC)) was 109 % of control and 91 % of control and the T/C (dose: 6.25 mg/kg/injection, schedule: Q01DX005 (ip), vehicle: saline) was 96 % of control.
In the case of `COC(=O)C1CCC(c2ccccc2)(c2ccccc2)C1O.COC(=O)C1CCC(c2ccccc2)(c2ccccc2)C1O.[Cu]` (centres undefined), the T/C [6] is reported as 100 % of control, the T/C [7] is reported as 100 % of control and the T/C [8] is reported as 100 % of control.
`Fc1ccc(NC(=S)SCc2ccco2)cc1` was tested, and the T/C (dose: 50.0 mg/kg/injection, schedule: Q01DX009 (ip), vehicle: suspension in saline) was 101 % of control, the T/C (dose: 100.0 mg/kg/injection, schedule: Q01DX009 (ip), vehicle: suspension in saline) was 98 % of control and the T/C (dose: 200.0 mg/kg/injection, schedule: Q01DX009 (ip), vehicle: suspension in saline) was 92 % of control.
`O=[N+]([O-])c1ccc(N2CCOCC2)c2c1no[n+]2[O-]` was tested, and the T/C (dose: 8.0 mg/kg/injection, schedule: Q04DX003 (ip), vehicle: suspension in saline) was 98 % of control, the T/C (dose: 16.0 mg/kg/injection, schedule: Q04DX003 (ip), vehicle: suspension in saline) was 105 % of control and the T/C (dose: 32.0 mg/kg/injection, schedule: Q04DX003 (ip), vehicle: suspension in saline) was 99 % of control. The T/C (dose: 64.0 mg/kg/injection, schedule: Q04DX003 (ip), vehicle: suspension in saline) was 123 % of control.
For `CCOC(=O)/N=C1\SC2(CC(C)=C(C)CS2=O)C(O)=C1C(=O)OCC` (centres undefined), the T/C [9] was 101 % of control, the T/C [10] was 100 % of control and the T/C (dose: 240.0 mg/kg/injection, schedule: Q01DX005 (ip), vehicle: saline with Tween-80) was 101 % of control.
For `N#C/C(=C\c1cccs1)c1nc(-c2ccc(Cl)cc2)cs1`, the T/C [4] was 91 % of control and the T/C [5] was 91 % of control.
`C[Si](C)(C)CNCCNC[Si](C)(C)C` was tested, and the T/C [9] was 105 % of control and the T/C [10] was 98 % of control.
`CCOc1c(N=Nc2ccc([N+](=O)[O-])cc2)c(C)nn1C(N)=S` was tested, and the T/C [1] was 93 % of control, the T/C [2] was 95 % of control and the T/C [3] was 98 % of control.
With `C=C1CC[C@@H]2C(C)(C)CCC[C@@]2(C)[C@@H]1Cc1cc(O)ccc1O` the T/C (dose: 10.0 mg/kg/injection, schedule: Q01DX009 (ip), vehicle: Klucel (hydroxypropylcellulose) (HPC)) was 104 % of control, the T/C (dose: 20.0 mg/kg/injection, schedule: Q01DX009 (ip), vehicle: Klucel (hydroxypropylcellulose) (HPC)) was 110 % of control and the T/C (dose: 40.0 mg/kg/injection, schedule: Q01DX009 (ip), vehicle: Klucel (hydroxypropylcellulose) (HPC)) was 116 % of control.
`C/C=C/C#CC#C/C=C/C=C/CC` was tested, and the T/C (dose: 12.5 mg/kg/injection, schedule: Q01DX009 (ip), vehicle: Klucel (hydroxypropylcellulose) (HPC)) was 104 % of control, the T/C (dose: 25.0 mg/kg/injection, schedule: Q01DX009 (ip), vehicle: Klucel (hydroxypropylcellulose) (HPC)) was 98 % of control and the T/C (dose: 50.0 mg/kg/injection, schedule: Q01DX009 (ip), vehicle: Klucel (hydroxypropylcellulose) (HPC)) was 103 % of control. For the same compound, the T/C (dose: 100.0 mg/kg/injection, schedule: Q01DX009 (ip), vehicle: Klucel (hydroxypropylcellulose) (HPC)) was 98 % of control.
For `CCOC(=O)C(=CNC(C)(C)C)C(=O)OCC`, the T/C [11] was 106 % of control, the T/C [12] was 115 % of control and the T/C (dose: 200.0 mg/kg/injection, schedule: Q01DX009 (ip), vehicle: saline with Tween-80) was 100 % of control.
In the case of `COC1C(C)OC(OC2CC(C)(O)Cc3cc4c(c(O)c32)C(=O)c2c(O)cc3c(c2C4=O)OC2OC3(C)C(O)C(N(C)C=O)C2O)C(OC)C1(C)OC` (centres undefined), the T/C (dose: 3.12 mg/kg/injection, schedule: Q04DX003 (ip), vehicle: other) is reported as 100 % of control, the T/C (dose: 6.25 mg/kg/injection, schedule: Q04DX003 (ip), vehicle: other) is reported as 97 % of control and the T/C (dose: 12.5 mg/kg/injection, schedule: Q04DX003 (ip), vehicle: other) is reported as 94 % of control. The T/C (dose: 25.0 mg/kg/injection, schedule: Q04DX003 (ip), vehicle: other) was 91 % of control and the T/C (dose: 50.0 mg/kg/injection, schedule: Q04DX003 (ip), vehicle: other) was 95 % of control.
In the case of `C#CCOc1ccc(C)cc1`, the T/C (dose: 25.0 mg/kg/injection, schedule: Q01DX009 (ip), vehicle: saline with Tween-80) is reported as 108 % of control, the T/C [11] is reported as 108 % of control and the T/C [12] is reported as 113 % of control.
For `CCOC(=O)c1ccc(N2C(=O)OC(C)(C)C2=O)cc1`, the T/C (dose: 50.0 mg/kg/injection, schedule: Q01DX005 (ip), vehicle: Klucel (hydroxypropylcellulose) (HPC)) was 103 % of control, the T/C (dose: 100.0 mg/kg/injection, schedule: Q01DX005 (ip), vehicle: Klucel (hydroxypropylcellulose) (HPC)) was 97 % of control and the T/C (dose: 200.0 mg/kg/injection, schedule: Q01DX005 (ip), vehicle: Klucel (hydroxypropylcellulose) (HPC)) was 101 % of control.
